From US6673839B1, “Pharmaceutical compositions with antitumour activity” (Universita' Degli Studi di Catania, priority 1998, dated 2004)
Where a name gives a salt, the structure may show the parent alone.

Columns and labels:
[1] = tested on: tumour cells from lymph nodes; assay: Effects of L-aC on cell cycle of cultured secondary human tumour cells; assay type: cell-based; conditions: 20 mg/ml
Description: L-aC was tested on tumour cells from lymph nodes taken from the same patients from which the primitive neoplasms had been taken.

[2] = tested on: Yoshida tumour; assay: Chemopreventive effects on Yoshida tumour inoculation and thriving; assay type: in vivo, Sprague-Dowley rats; conditions: for animals showing ascites: day 8 after inoculation
Description: In order to elucidate the actual chemoprevention antitumour Potentialities of L-aC, 125 Sprague-Dowley rats (4 months old, mean weight: 200 g), under standard feeding and temperature conditions (25° C.), were divided in 5 groups and treated as follows:
Group 1: 25 rats were intraperitoneally treated, on alternate days for 10 days, with 25 mg of L-aC diluted in 5 ml of saline solution. On day 10 they were inoculated with Yoshida tumour.
Group 2: 25 rats were intraperitoneally treated, on alternate days for 10 days, with 25 mg of L-aC diluted in 5 ml of saline solution. On day 10 they were inoculated with Yoshida tumour. Starting from day 11, they were further treated intraperitoneally, on alternate days, with 25 mg of L-aC diluted in 5 ml of saline solution, for a further 10 days.
Group 3: 25 previously untreated rats were inoculated, on day 10, with Yoshida tumour. Starting from day 14 they were intraperitoneally treated, on alternate days, with 25 mg of L-aC diluted in 5 ml of saline solution for 10 days.
Group 4: 25 previously untreated rats were inoculated on day 10 with Yoshida tumour. On day 18 to 24 they were intraperitoneally treated, on alternate days, with 25 mg of L-aC diluted in 5 ml of saline solution for 10 days.
Group 5: 25 previously untreated rats were inoculated on day 10 with Yoshida tumour. On day 18 to 24 they were subjected to emptying, on alternate days, of 5 ml of ascitic fluid which was substituted with 50 mg of L-aC diluted in 5 ml of saline solution.
The onset and evolution of the tumour were checked by daily observation and weighing.

[3] = tested on: prostate (Du 145) adenocarcinoma cell line; assay: Methylene blue assay on stabilized human neoplastic cell lines; assay type: cell-based; conditions: prostate carcinoma line
Description: (§1) The effects of L-aC on stabilized human neoplastic cell lines were tested using the methylene blue assay.
(§2) Acute promyelocytic leukemia cell line (HL60) and prostate (Du 145), colon (HT 29) and breast (MCF 7) adenocarcinoma cell lines have been used.
(§3) Cell suspensions at concentrations of 10^5 cells/ml were prepared.
(§4) 100 μl of the obtained cell suspension were inoculated on 96 well plates and incubated at 37° for 12 hours, to obtain cell adhesion to the plates. After 12 hours, L-aC was added at the concentrations of 0.2 mg/ml, 2 mg/ml, 20 mg/ml. After 72 hours, the culture medium was removed and 100 μl of 100% ethanol were added for 30 min. Subsequently ethanol was removed and 1% methylene-blue was added for 2 hours. The dye was then removed and the plates were dried before adding 1M HCl.
(§5) The cytotoxicity percentage was calculated using the following formula:
(§6) (1−[O^D treated cells/O^D control cells)×100.
(§7) The optical density was evaluated by Uniskan micro-spectrophotometer with 630 nmwavelength filter.

[4] = tested on: Acute promyelocytic leukemia cell line (HL60); assay: as above; assay type: cell-based
Description: as §1, §2, §3, §4, §5, §6, §7

CC(=O)OC(CC(=O)[O-])C[N+](C)(C)C [L-aC, L-acetylcarnitine hydrochloride]
activity versus that on cells from the primitive tumours ([1]; all samples): comparable
G1/S+G2M ratio after treatment ([1]; tumour with pre-treatment ratio 20/80): 74/26
necroscopy finding ([2]; 6 animals sacrified at end of observation): no presence of the disease
animals showing ascites ([2]; Group 1 (25 mg L-aC i.p. alternate days 10 days before inoculation)): 4/25
surviving animals ([2]; Group 1, 25 mg L-aC i.p. alternate days for 10 days, inoculated day 10, day 01 of observation): 25
surviving animals ([2]; Group 1, 25 mg L-aC i.p. alternate days for 10 days, inoculated day 10, day 03): 25
surviving animals ([2]; Group 1, 25 mg L-aC i.p. alternate days for 10 days, inoculated day 10, day 05): 25
surviving animals ([2]; Group 1, 25 mg L-aC i.p. alternate days for 10 days, inoculated day 10, day 07): 25
surviving animals ([2]; Group 1, 25 mg L-aC i.p. alternate days for 10 days, inoculated day 10, day 09): 25
surviving animals ([2]; Group 1, 25 mg L-aC i.p. alternate days for 10 days, inoculated day 10, day 10): 25
surviving animals ([2]; Group 1, 25 mg L-aC i.p. alternate days for 10 days, inoculated day 10, day 11): 25
surviving animals ([2]; Group 1, 25 mg L-aC i.p. alternate days for 10 days, inoculated day 10, day 14): 25
surviving animals ([2]; Group 1, 25 mg L-aC i.p. alternate days for 10 days, inoculated day 10, day 18): 25
surviving animals ([2]; Group 1, 25 mg L-aC i.p. alternate days for 10 days, inoculated day 10, day 21): 20
surviving animals ([2]; Group 1, 25 mg L-aC i.p. alternate days for 10 days, inoculated day 10, day 24): 15
surviving animals ([2]; Group 1, 25 mg L-aC i.p. alternate days for 10 days, inoculated day 10, day 27): 13
surviving animals ([2]; Group 1, 25 mg L-aC i.p. alternate days for 10 days, inoculated day 10, day 30): 13
surviving animals ([2]; Group 1, 25 mg L-aC i.p. alternate days for 10 days, inoculated day 10, day 45): 13
animals free from the disease and still alive ([2]; Group 1, of 21 ascites-free animals, day 27 of observation): 13
animals with late ascites that died ([2]; Group 1, of 21 ascites-free animals, within day 27 of observation): 8
day of observation by which ascitic animals died ([2]; Group 1, the 4 animals with ascites): ≤ 26 days
animals showing ascites ([2]; Group 2 (25 mg L-aC i.p. alternate days 10 days before and 10 days after inoculation)): 5/25
surviving animals ([2]; Group 2, 25 mg L-aC i.p. alternate days 10 days before and 10 days after inoculation (day 10), day 01 of observation): 25
surviving animals ([2]; Group 2, 25 mg L-aC i.p. alternate days 10 days before and 10 days after inoculation (day 10), day 03): 25
surviving animals ([2]; Group 2, 25 mg L-aC i.p. alternate days 10 days before and 10 days after inoculation (day 10), day 05): 25
surviving animals ([2]; Group 2, 25 mg L-aC i.p. alternate days 10 days before and 10 days after inoculation (day 10), day 07): 25
surviving animals ([2]; Group 2, 25 mg L-aC i.p. alternate days 10 days before and 10 days after inoculation (day 10), day 09): 25
surviving animals ([2]; Group 2, 25 mg L-aC i.p. alternate days 10 days before and 10 days after inoculation (day 10), day 10): 25
surviving animals ([2]; Group 2, 25 mg L-aC i.p. alternate days 10 days before and 10 days after inoculation (day 10), day 11): 25
surviving animals ([2]; Group 2, 25 mg L-aC i.p. alternate days 10 days before and 10 days after inoculation (day 10), day 14): 25
surviving animals ([2]; Group 2, 25 mg L-aC i.p. alternate days 10 days before and 10 days after inoculation (day 10), day 18): 25
surviving animals ([2]; Group 2, 25 mg L-aC i.p. alternate days 10 days before and 10 days after inoculation (day 10), day 21): 21
surviving animals ([2]; Group 2, 25 mg L-aC i.p. alternate days 10 days before and 10 days after inoculation (day 10), day 24): 21
surviving animals ([2]; Group 2, 25 mg L-aC i.p. alternate days 10 days before and 10 days after inoculation (day 10), day 27): 21
surviving animals ([2]; Group 2, 25 mg L-aC i.p. alternate days 10 days before and 10 days after inoculation (day 10), day 30): 21
surviving animals ([2]; Group 2, 25 mg L-aC i.p. alternate days 10 days before and 10 days after inoculation (day 10), day 45): 21
animals free from the disease and still alive ([2]; Group 2, of 20 ascites-free animals, day 27 of observation): 18
animals with late ascites that died ([2]; Group 2, of 20 ascites-free animals, within day 27): 2
animals still alive with markedly low or even no ascites ([2]; Group 2, day 27 of observation): 3
animals still alive ([2]; Group 3 (25 mg L-aC i.p. alternate days from day 14, inoculated day 10), day 27 of observation): 16/25
surviving animals ([2]; Group 3, inoculated day 10, 25 mg L-aC i.p. alternate days from day 14 for 10 days, day 01 of observation): 25
surviving animals ([2]; Group 3, inoculated day 10, 25 mg L-aC i.p. alternate days from day 14 for 10 days, day 03): 25
surviving animals ([2]; Group 3, inoculated day 10, 25 mg L-aC i.p. alternate days from day 14 for 10 days, day 05): 25
surviving animals ([2]; Group 3, inoculated day 10, 25 mg L-aC i.p. alternate days from day 14 for 10 days, day 07): 25
surviving animals ([2]; Group 3, inoculated day 10, 25 mg L-aC i.p. alternate days from day 14 for 10 days, day 09): 25
surviving animals ([2]; Group 3, inoculated day 10, 25 mg L-aC i.p. alternate days from day 14 for 10 days, day 10): 25
surviving animals ([2]; Group 3, inoculated day 10, 25 mg L-aC i.p. alternate days from day 14 for 10 days, day 11): 25
surviving animals ([2]; Group 3, inoculated day 10, 25 mg L-aC i.p. alternate days from day 14 for 10 days, day 14): 25
surviving animals ([2]; Group 3, inoculated day 10, 25 mg L-aC i.p. alternate days from day 14 for 10 days, day 18): 25
surviving animals ([2]; Group 3, inoculated day 10, 25 mg L-aC i.p. alternate days from day 14 for 10 days, day 21): 20
surviving animals ([2]; Group 3, inoculated day 10, 25 mg L-aC i.p. alternate days from day 14 for 10 days, day 24): 18
surviving animals ([2]; Group 3, inoculated day 10, 25 mg L-aC i.p. alternate days from day 14 for 10 days, day 27): 16
surviving animals ([2]; Group 3, inoculated day 10, 25 mg L-aC i.p. alternate days from day 14 for 10 days, day 30): 16
surviving animals ([2]; Group 3, inoculated day 10, 25 mg L-aC i.p. alternate days from day 14 for 10 days, day 45): 16
ascites amount in survivors ([2]; Group 3, day 27): markedly low or even no ascites amount
animals still alive ([2]; Group 4 (25 mg L-aC i.p. alternate days day 18 to 24, inoculated day 10), day 27 of observation): 11/25
surviving animals ([2]; Group 4, inoculated day 10, 25 mg L-aC i.p. alternate days day 18 to 24, day 01 of observation): 25
surviving animals ([2]; Group 4, inoculated day 10, 25 mg L-aC i.p. alternate days day 18 to 24, day 03): 25
surviving animals ([2]; Group 4, inoculated day 10, 25 mg L-aC i.p. alternate days day 18 to 24, day 05): 25
surviving animals ([2]; Group 4, inoculated day 10, 25 mg L-aC i.p. alternate days day 18 to 24, day 07): 25
surviving animals ([2]; Group 4, inoculated day 10, 25 mg L-aC i.p. alternate days day 18 to 24, day 09): 25
surviving animals ([2]; Group 4, inoculated day 10, 25 mg L-aC i.p. alternate days day 18 to 24, day 10): 25
surviving animals ([2]; Group 4, inoculated day 10, 25 mg L-aC i.p. alternate days day 18 to 24, day 11): 25
surviving animals ([2]; Group 4, inoculated day 10, 25 mg L-aC i.p. alternate days day 18 to 24, day 14): 25
surviving animals ([2]; Group 4, inoculated day 10, 25 mg L-aC i.p. alternate days day 18 to 24, day 18): 25
surviving animals ([2]; Group 4, inoculated day 10, 25 mg L-aC i.p. alternate days day 18 to 24, day 21): 15
surviving animals ([2]; Group 4, inoculated day 10, 25 mg L-aC i.p. alternate days day 18 to 24, day 24): 13
surviving animals ([2]; Group 4, inoculated day 10, 25 mg L-aC i.p. alternate days day 18 to 24, day 27): 11
surviving animals ([2]; Group 4, inoculated day 10, 25 mg L-aC i.p. alternate days day 18 to 24, day 30): 11
surviving animals ([2]; Group 4, inoculated day 10, 25 mg L-aC i.p. alternate days day 18 to 24, day 45): 11
ascites amount in survivors ([2]; Group 4, day 27): markedly low or even no ascites amount
day of observation by which all animals died ([2]; Group 5 (50 mg L-aC replacing 5 ml ascitic fluid, alternate days day 18 to 24)): ≤ 26 days
surviving animals ([2]; Group 5, inoculated day 10, 50 mg L-aC replacing 5 ml ascitic fluid alternate days day 18 to 24, day 01 of observation): 25
surviving animals ([2]; Group 5, inoculated day 10, 50 mg L-aC replacing 5 ml ascitic fluid alternate days day 18 to 24, day 03): 25
surviving animals ([2]; Group 5, inoculated day 10, 50 mg L-aC replacing 5 ml ascitic fluid alternate days day 18 to 24, day 05): 25
surviving animals ([2]; Group 5, inoculated day 10, 50 mg L-aC replacing 5 ml ascitic fluid alternate days day 18 to 24, day 07): 25
surviving animals ([2]; Group 5, inoculated day 10, 50 mg L-aC replacing 5 ml ascitic fluid alternate days day 18 to 24, day 09): 25
surviving animals ([2]; Group 5, inoculated day 10, 50 mg L-aC replacing 5 ml ascitic fluid alternate days day 18 to 24, day 10): 25
surviving animals ([2]; Group 5, inoculated day 10, 50 mg L-aC replacing 5 ml ascitic fluid alternate days day 18 to 24, day 11): 25
surviving animals ([2]; Group 5, inoculated day 10, 50 mg L-aC replacing 5 ml ascitic fluid alternate days day 18 to 24, day 14): 25
surviving animals ([2]; Group 5, inoculated day 10, 50 mg L-aC replacing 5 ml ascitic fluid alternate days day 18 to 24, day 18): 25
surviving animals ([2]; Group 5, inoculated day 10, 50 mg L-aC replacing 5 ml ascitic fluid alternate days day 18 to 24, day 21): 8
surviving animals ([2]; Group 5, inoculated day 10, 50 mg L-aC replacing 5 ml ascitic fluid alternate days day 18 to 24, day 24): 3
surviving animals ([2]; Group 5, inoculated day 10, 50 mg L-aC replacing 5 ml ascitic fluid alternate days day 18 to 24, day 27): 0
surviving animals ([2]; Group 5, inoculated day 10, 50 mg L-aC replacing 5 ml ascitic fluid alternate days day 18 to 24, day 30): 0
surviving animals ([2]; Group 5, inoculated day 10, 50 mg L-aC replacing 5 ml ascitic fluid alternate days day 18 to 24, day 45): 0
general condition of surviving animals ([2]; day 45 of observation): good health
deaths during further observation ([2]; survivors, further 6 weeks): no deaths occurred
cytotoxicity [3]: 58%
cytotoxicity [4]: 52%
